Laboratory results: patent US20050239656A1, “Pyridine compounds or salts thereof and herbicides containing the same” (priority 2002, published 2005)

How the values were obtained:
barnyardgrass [1] = assay: Test Example 1: foliage treatment, upland pot test; assay type: in vivo, Echinochloa crus-galli L.; settings: active ingredient 1000 g/ha, observed 18th to 23rd day, 0 = non-treated, 100 = complete kill
Method in brief: (§1)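 Applied as a post-emergence foliar spray: formulated compound diluted to 500 L/ha with spreader at 0.1% (v/v). Treatment timing—rice at 1.2–2.6, wheat at 1.3–2.4, barnyardgrass at 1.3–2.8, soybean at 0.1–0.4 leaf stage. Scored visually on a 0–100% control scale after 18–23 days.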

crabgrass [2] = assay: Test Example 1: foliage treatment, upland pot test; assay type: in vivo, Digitaria sanguinalis L.; settings: active ingredient 1000 g/ha, observed 18th to 23rd day, 0 = non-treated, 100 = complete kill
green foxtail [3] = assay: Test Example 1: foliage treatment, upland pot test; assay type: in vivo, Setaria viridis L.; settings: active ingredient 1000 g/ha, observed 18th to 23rd day, 0 = non-treated, 100 = complete kill
redroot pigweed [4] = assay: Test Example 1: foliage treatment, upland pot test; assay type: in vivo, Amaranthus retroflexus L.; settings: active ingredient 1000 g/ha, observed 18th to 23rd day, 0 = non-treated, 100 = complete kill
prickly sida [5] = assay: Test Example 1: foliage treatment, upland pot test; assay type: in vivo, Sida spinosa L.; settings: active ingredient 1000 g/ha, observed 18th to 23rd day, 0 = non-treated, 100 = complete kill
velvetleaf [6] = assay: Test Example 1: foliage treatment, upland pot test; assay type: in vivo, Abutilon theophrasti MEDIC.; settings: active ingredient 1000 g/ha, observed 18th to 23rd day, 0 = non-treated, 100 = complete kill
tall morningglory = assay: Test Example 1: foliage treatment, upland pot test; assay type: in vivo, Ipomoea purpurea L.; settings: active ingredient 1000 g/ha, observed 18th to 23rd day, 0 = non-treated, 100 = complete kill
From the text: Upland field soil was put into a 1/170,000 ha pot, and seed of various plants were sown. Then, when the plants reached predetermined leaf stages ((1) barnyardgrass: 1.3 to 2.8 leaf stages, (2) crabgrass: 1.0 to 2.8 leaf stages, (3) green foxtail: 1.3 to 2.6 leaf stages, (4) redroot pigweed: 0.1 to 1.2 leaf stages, (5) prickly sida: 0.1 to 1.2 leaf stages, (6) velvetleaf: 0.1 to 1.2 leaf stages, (7) tall morningglory: 0.1 to 1.5 leaf stages, (8) rice: 1.2 to 2.6 leaf stages, (9) wheat: 1.3 to 2.4 leaf stages, (10) corn, 2.1 to 3.2 leaf stages, (11) soybean: 0.1 to 0.4 leaf stage), a wettable powder or emulsifiable concentrate having the compound of the present invention formulated in accordance with a usual formulation method, was weighed so that the active ingredient would be a predetermined amount, and diluted with water in an amount of 500 L/ha. To the diluted solution, 0.1% (v/v) of agricultural spreader was added. The herbicide thus adjusted was applied by a small size sprayer for foliage treatment. On the 18th to 23rd days after the application of the herbicide, the growth of the respective plants was visually observed, and the herbicidal effects were evaluated by the growth controlling degrees (%) ranging from 0 (equivalent to the non-treated plot) to 100 (complete kill), whereby the results shown in Table 3, were obtained.

rice [7] = assay: Test Example 1: foliage treatment, upland pot test; assay type: in vivo, Oryza sativa L.; settings: crop, active ingredient 1000 g/ha, observed 18th to 23rd day, 0 = non-treated, 100 = complete kill
Method in brief: as §1

wheat [8] = assay: Test Example 1: foliage treatment, upland pot test; assay type: in vivo, Triticum spp.; settings: crop, active ingredient 1000 g/ha, observed 18th to 23rd day, 0 = non-treated, 100 = complete kill
Method in brief: as §1

corn [9] = assay: Test Example 1: foliage treatment, upland pot test; assay type: in vivo, Zea mays L.; settings: crop, active ingredient 1000 g/ha, observed 18th to 23rd day, 0 = non-treated, 100 = complete kill
Method in brief: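 Corn seeds were sown in upland field soil held in a 1/170,000 ha pot and grown to the 2.1 to 3.2 leaf stage. A wettable powder or emulsifiable concentrate of the test compound was diluted with water at 500 L/ha, given 0.1% (v/v) agricultural spreader, and sprayed onto the foliage with a small sprayer. Growth controlling degree (%) was scored visually 18th to 23rd days later, from 0 (non-treated) to 100 (complete kill).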

soybean [10] = assay: Test Example 1: foliage treatment, upland pot test; assay type: in vivo, Glycine max Merr.; settings: crop, active ingredient 1000 g/ha, observed 18th to 23rd day, 0 = non-treated, 100 = complete kill
Method in brief: as §1

barnyardgrass [11] = assay: Test Example 2: soil surface treatment, upland pot test; assay type: in vivo, Echinochloa crus-galli L.; settings: active ingredient 1000 g/ha, observed 20th to 28th day, 0 = non-treated, 100 = complete kill
Method in brief: (§2)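 Readout was visual percent growth control (0 matching untreated, 100 complete kill) at days 20–28. Compound, as emulsifiable concentrate or wettable powder at a preset active-ingredient rate in 1,500 L/ha water, was sprayed onto sown upland soil one day after sowing.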

crabgrass [12] = assay: as above; assay type: in vivo, Digitaria sanguinalis L.; settings: active ingredient 1000 g/ha, observed 20th to 28th day
Method in brief: as §2

green foxtail [13] = assay: as above; assay type: in vivo, Setaria viridis L.; settings: active ingredient 1000 g/ha, observed 20th to 28th day
Method in brief: as §2

redroot pigweed [14] = assay: as above; assay type: in vivo, Amaranthus retroflexus L.; settings: active ingredient 1000 g/ha, observed 20th to 28th day
Method in brief: as §2

prickly sida [15] = assay: as above; assay type: in vivo, Sida spinosa L.; settings: active ingredient 1000 g/ha, observed 20th to 28th day
Method in brief: as §2

velvetleaf [16] = assay: as above; assay type: in vivo, Abutilon theophrasti MEDIC.; settings: active ingredient 1000 g/ha, observed 20th to 28th day
Method in brief: as §2

rice [17] = assay: as above; assay type: in vivo, Oryza sativa L.; settings: active ingredient 1000 g/ha, observed 20th to 28th day
Method in brief: as §2

wheat [18] = assay: as above; assay type: in vivo, Triticum spp.; settings: active ingredient 1000 g/ha, observed 20th to 28th day
Method in brief: as §2

corn [19] = assay: as above; assay type: in vivo, Zea mays L.; settings: active ingredient 1000 g/ha, observed 20th to 28th day
Method in brief: as §2

soybean [20] = assay: as above; assay type: in vivo, Glycine max Merr.; settings: active ingredient 1000 g/ha, observed 20th to 28th day
Method in brief: as §2

barnyardgrass [21] = assay: Test Example 3: paddy pot test, application under submerged conditions; assay type: in vivo, Echinochloa crus-galli L.; settings: submerged application at 0.5 leaf stage, visually observed 14 days after application, 0 = non-treated, 100 = complete kill
Method in brief: (§3)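 Seeds were sown in flooded paddy soil (0.5–1 cm water), wapato tubers were planted 1–2 days later, and water was then held at 3–4 cm. Diluted wettable powder or emulsifiable concentrate was pipetted into the water at the 0.5 leaf or primary leaf stage. Growth control was visually scored at 14 days (0–100%).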

japanese bulrush = assay: as above; assay type: in vivo, Scirpus juncoides; settings: submerged application at 0.5 leaf stage, visually observed 14 days after application, 0 = non-treated, 100 = complete kill
Method in brief: as §3

japanese ribbon wapato = assay: as above; assay type: in vivo, Sagittaria pygniaea; settings: submerged application at primary leaf stage, visually observed 14 days after application, 0 = non-treated, 100 = complete kill
Method in brief: as §3

rice (var. Nihonbare) = assay: Test Example 3: paddy pot test, transplanted rice; assay type: in vivo, Oryza sativa L.; settings: applied 4th day after transplantation, visually observed 21st day after application, 0 = non-treated, 100 = complete kill
Method in brief: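 Rice (2-leaf stage) was transplanted 3 cm deep into puddled, leveled paddy soil under 3–4 cm flooding. On day 4 after transplanting, diluted wettable powder or emulsifiable concentrate was pipetted onto the water at a predetermined active-ingredient dose. Growth control (0 = untreated, 100 = complete kill) was scored visually 21 days later.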

CCC(=O)N(C)C(c1cnccc1C(F)(F)F)c1cccc2ccccc12 (stereo not shown) [I-43]
Growth controlling degree (%) Barnyardgrass (barnyardgrass [1]): 70%
Growth controlling degree (%) Crabgrass (crabgrass [2]): 90%
Growth controlling degree (%) Green foxtail (green foxtail [3]): 70%
Growth controlling degree (%) Redroot pigweed (redroot pigweed [4]): 70%
Growth controlling degree (%) Prickly sida (prickly sida [5]): 80%
Growth controlling degree (%) Velvetleaf (velvetleaf [6]): 95%
Growth controlling degree (%) Tall morningglory (tall morningglory): 90%
Growth controlling degree (%) Rice (rice [7]): 10%
Growth controlling degree (%) wheat (wheat [8]): 10%
Growth controlling degree (%) Corn (corn [9]): 10%
Growth controlling degree (%) Soybean (soybean [10]): 10%
Growth controlling degree (%) Barnyardgrass (barnyardgrass [11]): 90%
Growth controlling degree (%) Crabgrass (crabgrass [12]): 100%
Growth controlling degree (%) Green foxtail (green foxtail [13]): 98%
Growth controlling degree (%) Redroot pigweed (redroot pigweed [14]): 60%
Growth controlling degree (%) Prickly sida (prickly sida [15]): 70%
Growth controlling degree (%) Velvetleaf (velvetleaf [16]): 0%
Growth controlling degree (%) Rice (rice [17]): 10%
Growth controlling degree (%) wheat (wheat [18]): 40%
Growth controlling degree (%) Corn (corn [19]): 30%
Growth controlling degree (%) Soyabean (soybean [20]): 10%
Growth controlling degree (%) Barnyardgrass (barnyardgrass [21]; active ingredient 500 g/ha): 100%
Growth controlling degree (%) Japanese bulrush (japanese bulrush; active ingredient 500 g/ha): 100%
Growth controlling degree (%) Japanese ribbon wapato (japanese ribbon wapato; active ingredient 500 g/ha): 90%
Growth controlling degree (%) Rice (rice (var. Nihonbare); active ingredient 500 g/ha): 35%

COC(=O)N(C)C(c1cnccc1C(F)(F)F)c1cccc2ccccc12 (stereo not shown) [I-46]
Growth controlling degree (%) Barnyardgrass (barnyardgrass [1]): 80%
Growth controlling degree (%) Crabgrass (crabgrass [2]): 95%
Growth controlling degree (%) Green foxtail (green foxtail [3]): 50%
Growth controlling degree (%) Redroot pigweed (redroot pigweed [4]): 90%
Growth controlling degree (%) Prickly sida (prickly sida [5]): 80%
Growth controlling degree (%) Velvetleaf (velvetleaf [6]): 95%
Growth controlling degree (%) Tall morningglory (tall morningglory): 95%
Growth controlling degree (%) Rice (rice [7]): 30%
Growth controlling degree (%) wheat (wheat [8]): 30%
Growth controlling degree (%) Corn (corn [9]): 40%
Growth controlling degree (%) Soybean (soybean [10]): 95%
Growth controlling degree (%) Barnyardgrass (barnyardgrass [11]): 100%
Growth controlling degree (%) Crabgrass (crabgrass [12]): 90%
Growth controlling degree (%) Green foxtail (green foxtail [13]): 95%
Growth controlling degree (%) Redroot pigweed (redroot pigweed [14]): 10%
Growth controlling degree (%) Prickly sida (prickly sida [15]): 60%
Growth controlling degree (%) Velvetleaf (velvetleaf [16]): 50%
Growth controlling degree (%) Rice (rice [17]): 10%
Growth controlling degree (%) wheat (wheat [18]): 30%
Growth controlling degree (%) Corn (corn [19]): 10%
Growth controlling degree (%) Soyabean (soybean [20]): 0%
Growth controlling degree (%) Barnyardgrass (barnyardgrass [21]; active ingredient 500 g/ha): 100%
Growth controlling degree (%) Japanese bulrush (japanese bulrush; active ingredient 500 g/ha): 100%
Growth controlling degree (%) Japanese ribbon wapato (japanese ribbon wapato; active ingredient 500 g/ha): 90%
Growth controlling degree (%) Rice (rice (var. Nihonbare); active ingredient 500 g/ha): 10%

CC(C)C(c1cnccc1C(F)(F)F)N(C)C(=O)Cc1ccccc1Br (stereo not shown) [I-15]
Growth controlling degree (%) Barnyardgrass (barnyardgrass [1]): 70%
Growth controlling degree (%) Crabgrass (crabgrass [2]): 70%
Growth controlling degree (%) Green foxtail (green foxtail [3]): 80%
Growth controlling degree (%) Redroot pigweed (redroot pigweed [4]): 70%
Growth controlling degree (%) Prickly sida (prickly sida [5]): 80%
Growth controlling degree (%) Velvetleaf (velvetleaf [6]): 70%
Growth controlling degree (%) Tall morningglory (tall morningglory): 80%
Growth controlling degree (%) Rice (rice [7]): 10%
Growth controlling degree (%) wheat (wheat [8]): 20%
Growth controlling degree (%) Corn (corn [9]): 0%
Growth controlling degree (%) Soybean (soybean [10]): 40%
Growth controlling degree (%) Barnyardgrass (barnyardgrass [11]): 100%
Growth controlling degree (%) Crabgrass (crabgrass [12]): 100%
Growth controlling degree (%) Green foxtail (green foxtail [13]): 100%
Growth controlling degree (%) Redroot pigweed (redroot pigweed [14]): 70%
Growth controlling degree (%) Prickly sida (prickly sida [15]): 70%
Growth controlling degree (%) Velvetleaf (velvetleaf [16]): 60%
Growth controlling degree (%) Rice (rice [17]): 40%
Growth controlling degree (%) wheat (wheat [18]): 30%
Growth controlling degree (%) Corn (corn [19]): 40%
Growth controlling degree (%) Soyabean (soybean [20]): 20%
Growth controlling degree (%) Barnyardgrass (barnyardgrass [21]; active ingredient 250 g/ha): 100%
Growth controlling degree (%) Japanese bulrush (japanese bulrush; active ingredient 250 g/ha): 95%
Growth controlling degree (%) Japanese ribbon wapato (japanese ribbon wapato; active ingredient 250 g/ha): 100%
Growth controlling degree (%) Rice (rice (var. Nihonbare); active ingredient 250 g/ha): 10%

CCC(=O)N(CC)C(c1cnccc1C(F)(F)F)c1cccc2ccccc12 (stereo not shown) [I-44]
Growth controlling degree (%) Barnyardgrass (barnyardgrass [1]): 60%
Growth controlling degree (%) Crabgrass (crabgrass [2]): 80%
Growth controlling degree (%) Green foxtail (green foxtail [3]): 70%
Growth controlling degree (%) Redroot pigweed (redroot pigweed [4]): 70%
Growth controlling degree (%) Prickly sida (prickly sida [5]): 80%
Growth controlling degree (%) Velvetleaf (velvetleaf [6]): 95%
Growth controlling degree (%) Tall morningglory (tall morningglory): 90%
Growth controlling degree (%) Rice (rice [7]): 10%
Growth controlling degree (%) wheat (wheat [8]): 20%
Growth controlling degree (%) Corn (corn [9]): 10%
Growth controlling degree (%) Soybean (soybean [10]): 50%
Growth controlling degree (%) Barnyardgrass (barnyardgrass [11]): 80%
Growth controlling degree (%) Crabgrass (crabgrass [12]): 90%
Growth controlling degree (%) Green foxtail (green foxtail [13]): 100%
Growth controlling degree (%) Redroot pigweed (redroot pigweed [14]): 0%
Growth controlling degree (%) Prickly sida (prickly sida [15]): 0%
Growth controlling degree (%) Velvetleaf (velvetleaf [16]): 0%
Growth controlling degree (%) Rice (rice [17]): 40%
Growth controlling degree (%) wheat (wheat [18]): 40%
Growth controlling degree (%) Corn (corn [19]): 10%
Growth controlling degree (%) Soyabean (soybean [20]): 0%
Growth controlling degree (%) Barnyardgrass (barnyardgrass [21]; active ingredient 500 g/ha): 90%
Growth controlling degree (%) Japanese bulrush (japanese bulrush; active ingredient 500 g/ha): 95%
Growth controlling degree (%) Japanese ribbon wapato (japanese ribbon wapato; active ingredient 500 g/ha): 100%
Growth controlling degree (%) Rice (rice (var. Nihonbare); active ingredient 500 g/ha): 30%
